Laboratory results reported in patent US11608341B2, “Substituted tetrahydropyrazolo[3,4-d]pyrimidines and tetrahydropyrazolo[4,3-d]pyrimidines as C5A receptor modulators” (Idorsia Pharmaceuticals Ltd., priority 2018, dated 2023).
pIC50: −log10 of the molar value.

Molecular target: T1, C5AR1 (Homo sapiens, UniProt P21730)
T1 construct: host or cells: CHO-K1
T1 sequence (P21730 1-350): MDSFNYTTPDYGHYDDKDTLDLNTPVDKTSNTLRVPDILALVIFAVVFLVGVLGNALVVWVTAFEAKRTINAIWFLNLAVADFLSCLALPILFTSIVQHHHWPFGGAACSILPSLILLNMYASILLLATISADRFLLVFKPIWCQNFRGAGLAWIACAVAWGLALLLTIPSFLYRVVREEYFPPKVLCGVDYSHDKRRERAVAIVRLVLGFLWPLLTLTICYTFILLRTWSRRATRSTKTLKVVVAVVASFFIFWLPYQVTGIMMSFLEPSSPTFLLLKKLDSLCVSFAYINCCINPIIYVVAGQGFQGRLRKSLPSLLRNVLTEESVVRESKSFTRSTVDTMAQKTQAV
Assay: In vitro assay: antagonism of C5a-induced beta-arrestin recruitment (PathHunter) in CHO-K1 C5AR1 beta-arrestin cell line
Assay type: cell-based
Conditions: antagonistic activity, 1-10 nM C5a agonist, geometric mean where several measurements, read-out: C5aR IC50
How it was run: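 Antagonist or DMSO added first, then C5a (1-10 nM, added at 6-fold end concentration), 1.5 h at 37 °C. PathHunter detection reagent was added for 45 min at RT before plate reading. IC50s come from antagonist serial dilutions in nmol/l and are geometric means of several measurements.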

Row | pIC50 | SMILES
1 | 7.80 | Cc1cccc(F)c1N1CCC(N2Cc3cn(C)nc3N(Cc3c(F)cccc3C(F)(F)F)C2=O)CC1 [Example 61]
2 | 6.98 | Cc1cccc(F)c1N1CCC(N2Cc3cn(CCN4CCCC4)nc3N(Cc3ccccc3C(F)(F)F)C2=O)CC1 [Example 62]
3 | 7.04 | Cc1cccc(F)c1N1CCC(N2Cc3cn(CCN4CCCCC4)nc3N(Cc3ccccc3C(F)(F)F)C2=O)CC1 [Example 63]
4 | 7.68 | Cc1cccc(F)c1N1CCC(N2Cc3cn(CCN4CCOCC4)nc3N(Cc3ccccc3C(F)(F)F)C2=O)CC1 [Example 64]
5 | 6.92 | Cc1cccc(F)c1N1CCC(N2Cc3cn(CCN4CCN(C)CC4)nc3N(Cc3ccccc3C(F)(F)F)C2=O)CC1 [Example 65]
6 | 6.82 | CC(=O)NCCn1cc2c(n1)N(Cc1ccccc1C(F)(F)F)C(=O)N(C1CCN(c3c(C)cccc3F)CC1)C2 [Example 66]
7 | 7.82 | Cc1cccc(F)c1N1CCC(N2Cc3cn(CCNC(=O)OC(C)(C)C)nc3N(Cc3ccccc3C(F)(F)F)C2=O)CC1 [Example 67]
8 | 6.50 | Cn1cc2c(n1)N(Cc1ccccc1C(F)(F)F)C(=O)N(C1CCN(c3ncccc3F)CC1)C2 [Example 68]
9 | 7.42 | Cc1cccnc1N1CCC(N2Cc3cn(C)nc3N(Cc3ccccc3C(F)(F)F)C2=O)CC1 [Example 69]
10 | 6.29 | COc1cccnc1N1CCC(N2Cc3cn(C)nc3N(Cc3ccccc3C(F)(F)F)C2=O)CC1 [Example 70]
11 | 7.62 | Cc1cccc(F)c1N1CCC(N2Cc3cn(CCNC4CC4)nc3N(Cc3ccccc3C(F)(F)F)C2=O)CC1 [Example 71]
12 | 7.37 | Cc1cccc(F)c1N1CCC(N2Cc3cn(CCN(C)C(C)C)nc3N(Cc3ccccc3C(F)(F)F)C2=O)CC1 [Example 72]
13 | 7.77 | Cc1cccc(F)c1N1CCC(N2Cc3cn(CCN(C)C4CC4)nc3N(Cc3ccccc3C(F)(F)F)C2=O)CC1 [Example 73]
14 | 7.59 | COCCN(C)CCn1cc2c(n1)N(Cc1ccccc1C(F)(F)F)C(=O)N(C1CCN(c3c(C)cccc3F)CC1)C2 [Example 74]
15 | 6.77 | Cc1cccc(F)c1N1CCC(N2Cc3cn(C(C)C(N)=O)nc3N(Cc3ccccc3C(F)(F)F)C2=O)CC1 (centres unmarked) [Example 75]
16 | 8.00 | Cc1cccc(F)c1N1CCC(N2Cc3cn(C4COC4)nc3N(Cc3ccccc3C(F)(F)F)C2=O)CC1 [Example 77]
17 | 7.85 | Cc1cccc(F)c1N1CCC(N2Cc3cn(C(C)C#N)nc3N(Cc3ccccc3C(F)(F)F)C2=O)CC1 (centres unmarked) [Example 78]
18 | 6.17 | Cc1cccc(F)c1N1CCC(N2Cc3cn(C(C)CN)nc3N(Cc3ccccc3C(F)(F)F)C2=O)CC1 (centres unmarked) [Example 79]
19 | 6.46 | Cc1cccc(F)c1N1CCC(N2Cc3cn(CC(C)N)nc3N(Cc3ccccc3C(F)(F)F)C2=O)CC1 (centres unmarked) [Example 80]
20 | 7.68 | Cc1cccc(F)c1N1CCC(N2Cc3nn(C)nc3N(Cc3ccccc3C(F)(F)F)C2=O)CC1 [Example 81]
21 | 6.92 | Cc1cccc(F)c1N1CCC(N2Cc3cn(C4CCCCC4[N+](=O)[O-])nc3N(Cc3ccccc3C(F)(F)F)C2=O)CC1 (centres unmarked) [Example 82]

Row | pIC50 | SMILES
22 | 7.12 | Cc1cccc(F)c1N1CCC(N2Cc3cn(C(C)(NC(=O)OC(C)(C)C)C(F)(F)F)nc3N(Cc3ccccc3C(F)(F)F)C2=O)CC1 (centres unmarked) [Example 83]
23 | 7.13 | Cc1cccc(F)c1N1CCC(N2Cc3cn(C(C)(C)C(N)=O)nc3N(Cc3ccccc3C(F)(F)F)C2=O)CC1 [Example 84]
24 | 7.47 | Cc1ccnc(C#N)c1N1CCC(N2Cc3cn(C)nc3N(Cc3ccccc3C(F)(F)F)C2=O)CC1 [Example 85]
25 | 6.64 | Cc1nccc(F)c1N1CCC(N2Cc3cn(C)nc3N(Cc3ccccc3C(F)(F)F)C2=O)CC1 [Example 86]
26 | 7.92 | Cc1cccc(F)c1N1CCC(N2Cc3cn(C(C)(C)C#N)nc3N(Cc3ccccc3C(F)(F)F)C2=O)CC1 [Example 87]
27 | 6.81 | Cc1cccc(F)c1N1CCC(N2Cc3cn(C(C)(C)CN)nc3N(Cc3ccccc3C(F)(F)F)C2=O)CC1 [Example 88]
28 | 7.27 | Cc1nc2c(o1)N(Cc1ccccc1C(F)(F)F)C(=O)N(C1CCN(c3c(C)cccc3F)CC1)C2 [Example 89]
29 | 6.82 | Cc1nc2c(s1)N(Cc1ccccc1C(F)(F)F)C(=O)N(C1CCN(c3c(C)cccc3F)CC1)C2 [Example 90]
30 | 7.59 | Cc1cccc(F)c1N1CCC(N2Cc3cn(C4CN(C(=O)OC(C)(C)C)C4)nc3N(Cc3ccccc3C(F)(F)F)C2=O)CC1 [Example 91]
31 | 6.37 | Cc1cccc(F)c1N1CCC(N2Cc3cn(C4CNC4)nc3N(Cc3ccccc3C(F)(F)F)C2=O)CC1 [Example 92]
32 | 7.77 | Cc1cccc(F)c1N1CCC(N2Cc3cn(C4CCN(C(=O)OC(C)(C)C)C4)nc3N(Cc3ccccc3C(F)(F)F)C2=O)CC1 (centres unmarked) [Example 93]
33 | 6.14 | Cc1cccc(F)c1N1CCC(N2Cc3cn(C4CCNC4)nc3N(Cc3ccccc3C(F)(F)F)C2=O)CC1 (centres unmarked) [Example 94]
34 | 6.90 | COc1ccnc(OC)c1N1CCC(N2Cc3cn(C)nc3N(Cc3ccccc3C(F)(F)F)C2=O)CC1 [Example 95]
35 | 6.31 | COc1ncnc(C)c1N1CCC(N2Cc3cn(C)nc3N(Cc3ccccc3C(F)(F)F)C2=O)CC1 [Example 96]
36 | 7.52 | Cc1cccc(F)c1N1CCC(N2Cc3cn(CC4CCCN4C(=O)OC(C)(C)C)nc3N(Cc3ccccc3C(F)(F)F)C2=O)CC1 (centres unmarked) [Example 97]
37 | 6.47 | COc1ncnc(OC)c1N1CCC(N2Cc3cn(C)nc3N(Cc3ccccc3C(F)(F)F)C2=O)CC1 [Example 100]
38 | 7.66 | Cc1cccc(F)c1N1CCC(N2Cc3cn(CC(C)(C)NS(=O)(=O)c4ccc(Cl)cc4)nc3N(Cc3ccccc3C(F)(F)F)C2=O)CC1 [Example 101]
39 | 6.45 | CCN1CC(n2cc3c(n2)N(Cc2ccccc2C(F)(F)F)C(=O)N(C2CCN(c4c(C)cccc4F)CC2)C3)C1 [Example 103]
40 | 6.84 | Cc1cccc(F)c1N1CCC(N2Cc3cn(C4CN(CC(C)C)C4)nc3N(Cc3ccccc3C(F)(F)F)C2=O)CC1 [Example 104]
41 | 7.62 | Cc1cccc(F)c1N1CCC(N2Cc3cn(C4CN(CC(F)F)C4)nc3N(Cc3ccccc3C(F)(F)F)C2=O)CC1 [Example 106]
42 | 7.28 | Cc1cccc(F)c1N1CCC(N2Cc3cn(C4CN(CCF)C4)nc3N(Cc3ccccc3C(F)(F)F)C2=O)CC1 [Example 107]

Row | pIC50 | SMILES
43 | 7.68 | Cc1cccc(F)c1N1CCC(N2Cc3cn(C[C@H]4CC(F)(F)CN4C(=O)OC(C)(C)C)nc3N(Cc3ccccc3C(F)(F)F)C2=O)CC1 [Example 108]
44 | 7.57 | Cc1cccc(F)c1N1CCC(N2Cc3cn(C[C@@H]4CC(F)(F)CN4C(=O)OC(C)(C)C)nc3N(Cc3ccccc3C(F)(F)F)C2=O)CC1 [Example 109]
45 | 7.55 | Cc1cccc(F)c1N1CCC(N2Cc3cn(CC(C)(C)NS(=O)(=O)c4ccccc4[N+](=O)[O-])nc3N(Cc3ccccc3C(F)(F)F)C2=O)CC1 [Example 110]
46 | 7.54 | Cc1cccc(F)c1N1CCC(N2Cc3cn(C[C@H]4CC(F)(F)CN4)nc3N(Cc3ccccc3C(F)(F)F)C2=O)CC1 [Example 111]
47 | 7.74 | Cc1cccc(F)c1N1CCC(N2Cc3cn(C[C@@H]4CC(F)(F)CN4)nc3N(Cc3ccccc3C(F)(F)F)C2=O)CC1 [Example 112]
48 | 6.96 | CC(=O)N1CCC(n2cc3c(n2)N(Cc2ccccc2C(F)(F)F)C(=O)N(C2CCN(c4c(C)cccc4F)CC2)C3)C1 (centres unmarked) [Example 113]
49 | 6.97 | CC(=O)N1CCC1Cn1cc2c(n1)N(Cc1ccccc1C(F)(F)F)C(=O)N(C1CCN(c3c(C)cccc3F)CC1)C2 (centres unmarked) [Example 114]
50 | 6.86 | CC(=O)N1CCCC1Cn1cc2c(n1)N(Cc1ccccc1C(F)(F)F)C(=O)N(C1CCN(c3c(C)cccc3F)CC1)C2 (centres unmarked) [Example 115]
51 | 6.07 | CC(=O)N1CC(n2cc3c(n2)N(Cc2ccccc2C(F)(F)F)C(=O)N(C2CCN(c4c(C)cccc4F)CC2)C3)C1 [Example 116]
52 | 7.48 | COC(=O)N1CC(n2cc3c(n2)N(Cc2ccccc2C(F)(F)F)C(=O)N(C2CCN(c4c(C)cccc4F)CC2)C3)C1 [Example 117]
53 | 6.24 | Cc1cccc(F)c1N1CCC(N2Cc3cn(CC(C)(C)N)nc3N(Cc3ccccc3C(F)(F)F)C2=O)CC1 [Example 118]
54 | 6.53 | Cc1cccc(F)c1N1CCC(N2Cc3cn(C4CN(C(=O)N(C)C)C4)nc3N(Cc3ccccc3C(F)(F)F)C2=O)CC1 [Example 119]
55 | 5.87 | CNC(=O)N1CC(n2cc3c(n2)N(Cc2ccccc2C(F)(F)F)C(=O)N(C2CCN(c4c(C)cccc4F)CC2)C3)C1 [Example 120]
56 | 6.47 | Cc1cccc(F)c1N1CCC(N2Cc3cn(C[C@@H]4CCN4)nc3N(Cc3ccccc3C(F)(F)F)C2=O)CC1 [Example 122]
57 | 7.72 | COC(=O)N1CC[C@H]1Cn1cc2c(n1)N(Cc1ccccc1C(F)(F)F)C(=O)N(C1CCN(c3c(C)cccc3F)CC1)C2 [Example 123]
58 | 7.89 | CCOC(=O)N1CC[C@H]1Cn1cc2c(n1)N(Cc1ccccc1C(F)(F)F)C(=O)N(C1CCN(c3c(C)cccc3F)CC1)C2 [Example 124]
59 | 7.85 | Cc1cccc(F)c1N1CCC(N2Cc3cn(C[C@@H]4CCN4C(=O)OC(C)C)nc3N(Cc3ccccc3C(F)(F)F)C2=O)CC1 [Example 125]
60 | 7.82 | CCOC(=O)N1CC(n2cc3c(n2)N(Cc2ccccc2C(F)(F)F)C(=O)N(C2CCN(c4c(C)cccc4F)CC2)C3)C1 [Example 126]
61 | 7.85 | Cc1cccc(F)c1N1CCC(N2Cc3cn(C4CN(C(=O)OC(C)C)C4)nc3N(Cc3ccccc3C(F)(F)F)C2=O)CC1 [Example 127]
62 | 7.82 | Cc1cccc(F)c1N1CCC(N2Cc3nn(C)nc3N(Cc3ncccc3C(F)(F)F)C2=O)CC1 [Example 128]
